Assay results as given in US20240277713A1 (Kadmon Corporation, LLC, priority 2022, published 2024).

Tests used:
Sprague-Dawley rats = experiment: Pilot prenatal developmental toxicity study in Sprague-Dawley rats (Example 1); assay type: in vivo, rat
Description: A total of 52 Sprague-Dawley (SD) rats were used in this study.
Observations of the animals included cageside assessments (twice daily), evaluation of clinical signs (daily from GD 6 through 20), body weights (at arrival—GD 2 or 3—and GD 6, 9, 12, 15, 18, and 20), food consumption (GD 6-20), and anatomical pathology including a uterine examination. […] All fetuses were given an external examination.

[1] = Toxicokinetics in pregnant Sprague-Dawley rats (Example 1); assay type: in vivo, rat; details: female, Sprague-Dawley, rat, in vivo, po, 25 mg base/kg/day
[2] = Toxicokinetic evaluation in pregnant rats (Example 3); assay type: in vivo, rat; details: for Cmax / AUC(0-t): female, Sprague-Dawley, rat, plasma, po; for AUC(0-t): read-out: Mean AUC0-24 in plasma of pregnant rats
Description: Animals received in-life and postmorten evaluations.

rats = experiment: General toxicology studies in rats; assay type: in vivo, rat
[3] = Clinical drug interaction studies, effects of other drugs on belumosudil; assay type: in vivo, human; details: healthy subjects
P-gp = P-gp (Homo sapiens, UniProt P08183); experiment: Transporter systems in vitro: P-gp; assay type: in vitro ADME
CYP1A2 = molecular target: T1, CYP1A2 (Homo sapiens, UniProt P05177); experiment: Enzyme systems in vitro: CYP1A2; assay type: in vitro ADME
T1 sequence (P05177 1-516): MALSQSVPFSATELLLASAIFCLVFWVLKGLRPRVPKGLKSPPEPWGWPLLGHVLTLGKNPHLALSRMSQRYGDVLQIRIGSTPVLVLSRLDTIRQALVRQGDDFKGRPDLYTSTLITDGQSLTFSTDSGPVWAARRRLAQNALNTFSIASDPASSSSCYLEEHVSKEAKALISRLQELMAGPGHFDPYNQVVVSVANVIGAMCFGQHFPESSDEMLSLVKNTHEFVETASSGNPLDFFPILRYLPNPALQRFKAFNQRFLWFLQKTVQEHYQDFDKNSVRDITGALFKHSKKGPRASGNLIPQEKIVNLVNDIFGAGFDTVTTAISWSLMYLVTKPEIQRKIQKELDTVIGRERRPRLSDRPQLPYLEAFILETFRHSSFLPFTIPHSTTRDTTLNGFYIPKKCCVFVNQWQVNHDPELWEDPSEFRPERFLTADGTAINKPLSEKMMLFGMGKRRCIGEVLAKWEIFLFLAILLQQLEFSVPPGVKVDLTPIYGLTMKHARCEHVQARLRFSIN

UGT1A1 = molecular target: T2, UGT1A1 (Homo sapiens, UniProt P22309); experiment: Enzyme systems in vitro: UGT1A1; assay type: in vitro ADME
T2 sequence (P22309 26-533): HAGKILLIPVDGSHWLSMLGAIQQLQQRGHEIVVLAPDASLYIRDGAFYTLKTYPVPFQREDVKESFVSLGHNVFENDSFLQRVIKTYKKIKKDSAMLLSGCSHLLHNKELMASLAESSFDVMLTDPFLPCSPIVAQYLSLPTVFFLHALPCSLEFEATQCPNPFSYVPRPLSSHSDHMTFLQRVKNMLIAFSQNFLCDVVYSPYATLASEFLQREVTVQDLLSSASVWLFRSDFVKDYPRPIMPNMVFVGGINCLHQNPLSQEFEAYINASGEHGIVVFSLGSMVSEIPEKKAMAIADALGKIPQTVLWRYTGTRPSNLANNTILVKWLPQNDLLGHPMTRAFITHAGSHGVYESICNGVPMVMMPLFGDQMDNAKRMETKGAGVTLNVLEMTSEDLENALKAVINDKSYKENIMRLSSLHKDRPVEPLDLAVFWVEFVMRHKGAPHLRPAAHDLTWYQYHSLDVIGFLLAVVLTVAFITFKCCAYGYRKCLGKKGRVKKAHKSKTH

UGT1A9 = molecular target: T3, UGT1A9 (Homo sapiens, UniProt O60656); experiment: Enzyme systems in vitro: UGT1A9; assay type: in vitro ADME
T3 sequence (O60656 26-530): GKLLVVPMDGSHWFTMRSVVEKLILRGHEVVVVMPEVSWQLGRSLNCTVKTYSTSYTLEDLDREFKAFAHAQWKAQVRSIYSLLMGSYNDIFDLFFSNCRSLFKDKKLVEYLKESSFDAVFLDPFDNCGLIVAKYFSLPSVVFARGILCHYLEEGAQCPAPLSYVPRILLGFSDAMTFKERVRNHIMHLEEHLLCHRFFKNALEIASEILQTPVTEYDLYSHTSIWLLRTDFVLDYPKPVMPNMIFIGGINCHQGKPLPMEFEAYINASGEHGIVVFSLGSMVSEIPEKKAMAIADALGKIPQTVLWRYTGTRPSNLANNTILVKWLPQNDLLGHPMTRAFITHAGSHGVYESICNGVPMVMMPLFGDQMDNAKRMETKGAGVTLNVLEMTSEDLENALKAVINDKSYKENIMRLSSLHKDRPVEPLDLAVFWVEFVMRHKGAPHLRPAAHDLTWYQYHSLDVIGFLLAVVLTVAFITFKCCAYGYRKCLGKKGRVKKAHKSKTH

[4] = 15 mg/kg/day, GD 6, belumosudil 15 mg base/kg oral
[5] = 15 mg/kg/day, GD 17, belumosudil 15 mg base/kg oral
[6] = 50 mg/kg/day, GD 6, belumosudil 50 mg base/kg oral
[7] = 50 mg/kg/day, GD 17, belumosudil 50 mg base/kg oral
[8] = 150 mg/kg/day, GD 6, belumosudil 150 mg base/kg oral
[9] = 150 mg/kg/day, GD 17, belumosudil 150 mg base/kg oral
[10] = coadministration of rabeprazole

Sequence of P-gp (P08183 whole entry): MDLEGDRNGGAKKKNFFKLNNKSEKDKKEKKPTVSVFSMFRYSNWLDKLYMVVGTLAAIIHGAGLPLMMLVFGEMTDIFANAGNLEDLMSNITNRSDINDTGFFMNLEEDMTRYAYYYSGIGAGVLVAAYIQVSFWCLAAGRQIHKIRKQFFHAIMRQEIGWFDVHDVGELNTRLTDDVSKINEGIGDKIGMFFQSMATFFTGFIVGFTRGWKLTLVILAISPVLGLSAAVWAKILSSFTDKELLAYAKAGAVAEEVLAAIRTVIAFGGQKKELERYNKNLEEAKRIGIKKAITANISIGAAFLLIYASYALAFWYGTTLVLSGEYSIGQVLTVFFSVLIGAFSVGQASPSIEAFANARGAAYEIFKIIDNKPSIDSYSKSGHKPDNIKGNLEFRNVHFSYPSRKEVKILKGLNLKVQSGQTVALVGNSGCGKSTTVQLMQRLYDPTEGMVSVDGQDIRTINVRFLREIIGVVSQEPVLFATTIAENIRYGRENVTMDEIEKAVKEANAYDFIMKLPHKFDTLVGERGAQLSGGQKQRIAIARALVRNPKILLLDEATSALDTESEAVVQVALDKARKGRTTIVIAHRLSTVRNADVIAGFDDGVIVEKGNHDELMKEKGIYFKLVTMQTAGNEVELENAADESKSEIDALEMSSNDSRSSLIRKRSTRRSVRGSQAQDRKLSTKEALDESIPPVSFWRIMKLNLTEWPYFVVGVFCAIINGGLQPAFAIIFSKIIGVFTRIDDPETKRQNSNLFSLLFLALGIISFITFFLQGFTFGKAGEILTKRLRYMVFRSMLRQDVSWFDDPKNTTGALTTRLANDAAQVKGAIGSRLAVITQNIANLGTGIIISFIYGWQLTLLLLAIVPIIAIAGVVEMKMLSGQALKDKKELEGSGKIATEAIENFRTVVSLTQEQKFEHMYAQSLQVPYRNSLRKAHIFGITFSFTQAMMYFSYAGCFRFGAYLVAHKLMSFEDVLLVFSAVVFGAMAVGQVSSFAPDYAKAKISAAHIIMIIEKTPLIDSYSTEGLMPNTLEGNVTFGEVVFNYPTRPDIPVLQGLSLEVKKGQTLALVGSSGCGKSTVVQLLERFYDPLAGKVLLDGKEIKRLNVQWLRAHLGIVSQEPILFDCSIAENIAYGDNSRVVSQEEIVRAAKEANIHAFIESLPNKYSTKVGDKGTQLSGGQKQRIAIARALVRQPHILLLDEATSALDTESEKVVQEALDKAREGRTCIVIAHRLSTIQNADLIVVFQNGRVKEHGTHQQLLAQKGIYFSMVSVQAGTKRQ

CC(C)NC(=O)COc1cccc(-c2nc(Nc3ccc4[nH]ncc4c3)c3ccccc3n2)c1 [belumosudil, 2-{3-[4-(1H-indazol-5-ylamino)-2-quinazolinyl]phenoxy}-N-(propan-2-yl) acetamide]
Mean post-implantation loss (Sprague-Dawley rats; 25 mg base/kg/day): 4.00 % per litter
Mean viable litter size (Sprague-Dawley rats; 25 mg base/kg/day): 13.2
combined mean fetal body weight (males and females) (Sprague-Dawley rats; 25 mg base/kg/day): 4.37 g
mean fetal body weight (female fetuses) (Sprague-Dawley rats; 25 mg base/kg/day): 4.19 g
Mean post-implantation loss (Sprague-Dawley rats; 50 mg base/kg/day): 11.62 % per litter
Mean viable litter size (Sprague-Dawley rats; 50 mg base/kg/day): 11.6
combined mean fetal body weight (males and females) (Sprague-Dawley rats; 50 mg base/kg/day): 4.50 g
litter incidence of external fetal malformations (Sprague-Dawley rats; 50 mg base/kg/day): 40%
mean fetal body weight (female fetuses) (Sprague-Dawley rats; 50 mg base/kg/day): 4.39 g
Mean post-implantation loss (Sprague-Dawley rats; 150 mg base/kg/day): 4.51 % per litter
Mean viable litter size (Sprague-Dawley rats; 150 mg base/kg/day): 12.2
combined mean fetal body weight (males and females) (Sprague-Dawley rats; 150 mg base/kg/day): 4.22 g
litter incidence of external fetal malformations (Sprague-Dawley rats; 150 mg base/kg/day): 20%
maternal toxicity (Sprague-Dawley rats; 150 mg base/kg/day): moderate
mean body weights (Sprague-Dawley rats; 150 mg base/kg/day): reduced throughout gestation
mean fetal body weight (female fetuses) (Sprague-Dawley rats; 150 mg base/kg/day): 4.18 g
Mean post-implantation loss (Sprague-Dawley rats; 300 mg base/kg/day): 24.51 % per litter
Mean viable litter size (Sprague-Dawley rats; 300 mg base/kg/day): 10.0
clinical signs (Sprague-Dawley rats; 300 mg base/kg/day): unkempt and/or thin appearance, and hunched posture
combined mean fetal body weight (males and females) (Sprague-Dawley rats; 300 mg base/kg/day): 3.42 g
litter incidence of external fetal malformations (Sprague-Dawley rats; 300 mg base/kg/day): 25%
maternal, embryo, and fetal toxicity (Sprague-Dawley rats; 300 mg base/kg/day): excessive
mean body weight values, body weight gains and food consumption (Sprague-Dawley rats; 300 mg base/kg/day): adversely affected at every interval
mean fetal body weight (female fetuses) (Sprague-Dawley rats; 300 mg base/kg/day): 3.34 g
maternal toxicity (Sprague-Dawley rats; 25 and 50 mg base/kg/day): slight
mean body weight gains and food consumption (Sprague-Dawley rats; 25 and 50 mg base/kg/day, GD 6-9, 6-18, 6-20): slightly reduced
maternal necropsy findings (Sprague-Dawley rats; any treated group): No adverse maternal necropsy findings
doses at which fetal malformations were observed (absence of anus and tail, omphalocele, dome shaped head) (Sprague-Dawley rats; pilot study, pregnant rats, oral): ≥ 50 mg/kg/day
AUC(0-t) ([1]; read-out: maternal AUC0-24): 20400 ng·h/mL
Cmax ([1]; read-out: maternal Cmax): 1800 ng/mL
Cmax [2, 4]: 1530 ng/mL
AUC(0-t) [2, 4]: 9750 ng·h/mL
Cmax [2, 5]: 1320 ng/mL
AUC(0-t) [2, 5]: 11900 ng·h/mL
Cmax [2, 6]: 3000 ng/mL
AUC(0-t) [2, 6]: 37700 ng·h/mL
Cmax [2, 7]: 4360 ng/mL
AUC(0-t) [2, 7]: 33300 ng·h/mL
Cmax [2, 8]: 5150 ng/mL
AUC(0-t) [2, 8]: 89400 ng·h/mL
Cmax [2, 9]: 7800 ng/mL
AUC(0-t) [2, 9]: 88300 ng·h/mL
accumulation after multiple dosing of belumosudil ([2]; pregnant rats): No apparent accumulation
dose with decreased follicular development in ovaries (rats): 275 mg/kg/day
effect on belumosudil exposure ([3]; coadministered with itraconazole): no clinically meaningful effect
decrease in belumosudil AUC ([3]; coadministration of omeprazole): 47%
decrease in belumosudil Cmax ([3]; coadministration of omeprazole): 68%
decrease in belumosudil AUC [3, 10]: 80%
decrease in belumosudil Cmax [3, 10]: 87%
decrease in belumosudil AUC ([3]; coadministration of rifampin): 72%
decrease in belumosudil Cmax ([3]; coadministration of rifampin): 59%
P-gp substrate status (P-gp): substrate of P-gp
P-gp inhibition (P-gp; clinically relevant concentrations): inhibits
CYP1A2 inhibition (CYP1A2): inhibitor
UGT1A1 inhibition (UGT1A1): inhibitor
UGT1A9 inhibition (UGT1A9): inhibitor
